What was measured:
Type in all cases: in vivo, Balb/c female mice
[1] = Body weight in asthma-induced mice; details: homoegonol study
Experimental: (§1) To prepare bronchial asthma-induced experimental animals, six-week-old Balb/c female mice of mean weight about 20 g were used. After one week of adaptation, individuals which had no observed abnormality on a basic physical examination were targeted. 200 μL of phosphate buffered saline (PBS)(pH 7.4) in which 2 mg of aluminum hydroxide (A8222, Sigma, St. Louis, Mo.) and 20 μg of ovalbumin (A5503, Sigma, St. Louis, Mo.) were suspended was injected into the peritoneal cavity at two-week intervals to result in sensitization. On days 28 to 30 after the first intraperitoneal administration of ovalbumin, inhalation challenge was performed for 30 min with 1% ovalbumin using an ultrasonic atomizer. 24 hours after the last antigen administration, airway hyperresponsiveness was measured. After 24 hours, a lethal dose of pentobarbital (Entobar®, Hanlim Pharm Co., Ltd.) was administered, body weight measurement and bronchotomy were performed, and bronchoalveolar lavage was performed with a total 1.2 mL of physiological saline, and then, samples were collected. […] Eight white mice were used for each group. Experimental groups for homoegonol were a group (hE7.5) in which animals were orally administered with 7.5 mg/kg homoegonol 1 hour prior to ovalbumin inhalation, a group (hE15) in which animals were orally administered with 15 mg/kg homoegonol 1 hour prior to ovalbumin inhalation, and a group (hE30) in which animals were orally administered with 30 mg/kg homoegonol 1 hour prior to ovalbumin inhalation, and five white mice were used for each group.
(§2) To determine an effect of styraxlignolide A on reduction in body weight in asthma-induced mice, body weight of each mouse prepared in Example 2 was measured. For statistical analyses for all measurements, means and standard errors (mean±S.E.) according to a number of variables were calculated, and comparison between each group was analyzed by performing a Mann-whitney U test using SPSS 10.0. Statically significance was accepted at p<0.05.
as §2, with “homoegonol” for “styraxlignolide A”

[2] = tested on: airway hyperresponsiveness; assay: Airway hyperresponsiveness, Penh by one chamber plethysmography after methacholine inhalation; details: asthma-induced mice, homoegonol study
Experimental: as §1, with “Experimental groups for homoegonol were a group (hE7.5) in which animals were orally administered with 7.5 mg/kg homoegonol 1 hour prior to ovalbumin inhalation, a group (hE15) in which animals were orally administered with 15 mg/kg homoegonol 1 hour prior to ovalbumin inhalation, and a group (hE30) in which animals were orally administered with 30 mg/kg homoegonol 1 hour prior to ovalbumin inhalation, and five white mice were used for each group.” left out
The effect of styraxlignolide A on airway hyperresponsiveness caused by asthma occurrence was examined by measuring airway resistance with one chamber plethysmography (All medicus, Seoul, Republic of Korea) and degree of airway resistance was assessed by measuring Penh (enhanced pause) values. The baseline value was measured under a normal respiratory condition, and then, PBS was inhaled using an ultrasonic atomizer for 3 min, and Penh values were measured over 3 min. […] Louis, Mo.) which is used in general methods for diagnosis of bronchial asthma were inhaled and Penh values were measured. Penh value is shown in the following Equation 1, and the resulting Penh value was expressed as a percent increase in Penh after inhalation of each concentration of methacholine. The baseline Penh (saline challenge) was expressed as 100%.
Te: expiratory time (sec), the time from inspiration to the next inspiration
RT: relaxation time, the elapsed time between the beginning of the expiration and the moment when the remaining 30% of the tidal volume has been reached during expiration
PEF: Peak expiration flow
PIF: Peak inspiration flow
To examine the effect of homoegonol on airway hyperresponsiveness caused by asthma occurrence, Penh value was measured according to the method in <Experimental Example 2>.

[3] = tested on: fibrosis in subsegmental bronchi; assay: Fibrosis in subsegmental bronchi (Masson's trichrome staining); details: asthma-induced mice, homoegonol study; 30 mg/kg PO
Experimental: as §1

TGF-β1 = TGF-β1 in bronchoalveolar lavage fluid; details: asthma-induced mice, homoegonol study
Experimental: as §1
(§3) To examine the effect of homoegonol on airway remodeling, generation of TGF-β1 and IL-17 in bronchoalveolar lavage fluid was measured.

IL-17 = IL-17 in bronchoalveolar lavage fluid; details: asthma-induced mice, homoegonol study
Experimental: as §1, §3

Molecule COc1ccc(-c2cc3cc(CCCO)cc(OC)c3o2)cc1OC [homoegonol] has a body weight ([1]; 7.5 mg/kg PO 1 hour prior to ovalbumin inhalation) of 22.10 ± 0.13 g, a body weight ([1]; 15 mg/kg PO 1 hour prior to ovalbumin inhalation) of 21.23 ± 0.43 g and a body weight ([1]; 30 mg/kg PO 1 hour prior to ovalbumin inhalation) of 21.98 ± 0.47 g. For the same molecule, the Penh values ([2]; 7.5 mg/kg PO, methacholine 0 mg/ml) was 0.6003 ± 0.0500, the Penh values ([2]; 7.5 mg/kg PO, methacholine 12.5 mg/ml) was 1.1399 ± 0.1279 and the Penh values ([2]; 7.5 mg/kg PO, methacholine 25 mg/ml) was 1.4067 ± 0.1279. It also gave a Penh values ([2]; 7.5 mg/kg PO, methacholine 50 mg/ml) of 1.4317 ± 0.2094, a Penh values ([2]; 15 mg/kg PO, methacholine 0 mg/ml) of 0.4538 ± 0.0376 and a Penh values ([2]; 15 mg/kg PO, methacholine 12.5 mg/ml) of 0.7989 ± 0.0736. The Penh values ([2]; 15 mg/kg PO, methacholine 25 mg/ml) was 1.0243 ± 0.1881, the Penh values ([2]; 15 mg/kg PO, methacholine 50 mg/ml) was 1.0918 ± 0.1914 and the Penh values ([2]; 30 mg/kg PO, methacholine 0 mg/ml) was 0.4736 ± 0.0420. For the same molecule, the Penh values ([2]; 30 mg/kg PO, methacholine 12.5 mg/ml) was 0.6516 ± 0.0914, the Penh values ([2]; 30 mg/kg PO, methacholine 25 mg/ml) was 0.9515 ± 0.1268 and the Penh values ([2]; 30 mg/kg PO, methacholine 50 mg/ml) was 1.0576 ± 0.1582. The “area of a fibrosis stained region per 100 μm of a basement membrane perimeter” value [3] was 320.99 ± 46.2236 μm^2/100 μm of basement membrane, the “TGF-β1 concentrations in bronchoalveolar lavage fluid” value (“TGF-β1 concentrations” for short) (TGF-β1; 7.5 mg/kg PO) was 216.1875 ± 13.5904 pg/mL and the “TGF-β1 concentrations” value (TGF-β1; 15 mg/kg PO) was 190.4375 ± 13.0702 pg/mL. The “TGF-β1 concentrations” value (TGF-β1; 30 mg/kg PO) was 186.8125 ± 6.4551 pg/mL, the “IL-17 concentrations in bronchoalveolar lavage fluid” value (from here on “IL-17 concentrations”) (IL-17; 7.5 mg/kg PO) was 70.3409 ± 14.2912 pg/mL and the “IL-17 concentrations” value (IL-17; 15 mg/kg PO) was 43.5682 ± 2.9102 pg/mL. For the same molecule, the “IL-17 concentrations” value (IL-17; 30 mg/kg PO) was 27.3863 ± 5.7881 pg/mL.

From US8980846B2, “Composition containing styraxlignolide A or the aglycone thereof as an active ingredient for preventing or treating asthma” (Korea Research Institute of Bioscience and Biotechnology, priority 2010, dated 2015)
